Laboratory results taken from PubChem BioAssay AID2060620 (Molecular Pharmacology Branch, DTP, NCI, 2025).

System: 328373-195-R-J1-PDC complex spheroids, viability % test/control
Test: Anticancer human tumor 328373-195-R-J1-PDC patient-derived head and neck squamous carcinoma cell line growth inhibition [CLK]
Settings: for IC50: curve of first compound; for viability, T/C: stronger effect = lower value
Procedure, shortened: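 Multi-cell-type spheroids combined patient-derived tumor cells with HUVEC endothelial cells and human mesenchymal stem cells. Paired agents were dosed in half-log steps down from about clinical Cmax, or from 10 microM where Cmax was unknown.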

[1] = second compound 0.0316 µM, first compound 0.0316 µM
[2] = second compound 0.0316 µM, first compound 0.1 µM
[3] = second compound 0.0316 µM, first compound 0.316 µM
[4] = second compound 0.0316 µM, first compound 1 µM
[5] = second compound 0.1 µM, first compound 0.0316 µM
[6] = second compound 0.1 µM, first compound 0.1 µM
[7] = second compound 0.1 µM, first compound 0.316 µM
[8] = second compound 0.1 µM, first compound 1 µM
[9] = second compound 0.316 µM, first compound 0.0316 µM
[10] = second compound 0.316 µM, first compound 0.1 µM
[11] = second compound 0.316 µM, first compound 0.316 µM
[12] = second compound 0.316 µM, first compound 1 µM
[13] = second compound 1 µM, first compound 0.0316 µM
[14] = second compound 1 µM, first compound 0.1 µM
[15] = second compound 1 µM, first compound 0.316 µM
[16] = second compound 1 µM, first compound 1 µM
[17] = second compound 3.16 µM, first compound 0.0316 µM
[18] = second compound 3.16 µM, first compound 0.1 µM
[19] = second compound 3.16 µM, first compound 0.316 µM
[20] = second compound 3.16 µM, first compound 1 µM
[21] = second compound 10 µM, first compound 0.0316 µM
[22] = second compound 10 µM, first compound 0.1 µM
[23] = second compound 10 µM, first compound 0.316 µM
[24] = second compound 10 µM, first compound 1 µM
[25] = second compound 0.0316 µM, first compound 3.16 µM
[26] = second compound 0.0316 µM, first compound 10 µM
[27] = second compound 0.1 µM, first compound 3.16 µM
[28] = second compound 0.1 µM, first compound 10 µM
[29] = second compound 0.316 µM, first compound 3.16 µM
[30] = second compound 0.316 µM, first compound 10 µM
[31] = second compound 1 µM, first compound 3.16 µM
[32] = second compound 1 µM, first compound 10 µM
[33] = second compound 3.16 µM, first compound 3.16 µM
[34] = second compound 3.16 µM, first compound 10 µM
[35] = second compound 10 µM, first compound 3.16 µM
[36] = second compound 10 µM, first compound 10 µM
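Also: spheroids exposed to the agents for 7 days.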

## CCN1CCN(Cc2ccc(Nc3ncc(F)c(-c4cc(F)c5nc(C)n(C(C)C)c5c4)n3)nc2)CC1 + CN1CCN(c2cc(C(=O)Nc3cc4cc(-c5cnn(C)c5)ccc4cn3)ccn2)CC1
Second compound 0.0316 µM
  IC50: > 1 µM
Second compound 0.1 µM
  IC50: > 1 µM
Second compound 0.316 µM
  IC50: < 0.00316 µM
Second compound 1 µM
  IC50: < 0.00316 µM
Second compound 3.16 µM
  IC50: < 0.00316 µM
Second compound 10 µM
  IC50: < 0.00316 µM
Second compound 0.0316 µM, first compound 0.00316 µM
  viability, T/C: 94.7%
Second compound 0.0316 µM, first compound 0.01 µM
  viability, T/C: 95.9%
[1]
  viability, T/C: 103%
[2]
  viability, T/C: 79.5%
[3]
  viability, T/C: 71.3%
[4]
  viability, T/C: 51.2%
Second compound 0.1 µM, first compound 0.00316 µM
  viability, T/C: 86.5%
Second compound 0.1 µM, first compound 0.01 µM
  viability, T/C: 84.8%
[5]
  viability, T/C: 88.5%
[6]
  viability, T/C: 69.3%
[7]
  viability, T/C: 63%
[8]
  viability, T/C: 53.3%
Second compound 0.316 µM, first compound 0.00316 µM
  viability, T/C: 29.9%
Second compound 0.316 µM, first compound 0.01 µM
  viability, T/C: 32.9%
[9]
  viability, T/C: 31.6%
[10]
  viability, T/C: 26.5%
[11]
  viability, T/C: 24.2%
[12]
  viability, T/C: 18.5%
Second compound 1 µM, first compound 0.00316 µM
  viability, T/C: 0.16%
Second compound 1 µM, first compound 0.01 µM
  viability, T/C: 2.17%
[13]
  viability, T/C: 0.34%
[14]
  viability, T/C: 1.1%
[15]
  viability, T/C: 0.85%
[16]
  viability, T/C: 0.24%
Second compound 3.16 µM, first compound 0.00316 µM
  viability, T/C: 0.11%
Second compound 3.16 µM, first compound 0.01 µM
  viability, T/C: 1.57%
[17]
  viability, T/C: 1.92%
[18]
  viability, T/C: 0.15%
[19]
  viability, T/C: 1.14%
[20]
  viability, T/C: 0.2%
Second compound 10 µM, first compound 0.00316 µM
  viability, T/C: 0.37%
Second compound 10 µM, first compound 0.01 µM
  viability, T/C: 0.56%
[21]
  viability, T/C: 3.2%
[22]
  viability, T/C: 0.17%
[23]
  viability, T/C: 1.94%
[24]
  viability, T/C: 1.71%

## O=C(c1cc(Cc2n[nH]c(=O)c3ccccc23)ccc1F)N1CCN(C(=O)C2CC2)CC1 + CNC(=O)c1ccc(Nc2nc(OC3CCCC3)c3c(-c4ccc5nc(C)oc5c4)c[nH]c3n2)c(OC)c1
Second compound 0.0316 µM
  IC50: > 10 µM
Second compound 0.1 µM
  IC50: < 0.0316 µM
Second compound 0.316 µM
  IC50: < 0.0316 µM
Second compound 1 µM
  IC50: < 0.0316 µM
Second compound 3.16 µM
  IC50: < 0.0316 µM
Second compound 10 µM
  IC50: < 0.0316 µM
[1]
  viability, T/C: 69.1%
[2]
  viability, T/C: 62.5%
[3]
  viability, T/C: 62.2%
[4]
  viability, T/C: 59.1%
[25]
  viability, T/C: 70.7%
[26]
  viability, T/C: 52.3%
[5]
  viability, T/C: 13.8%
[6]
  viability, T/C: 13.1%
[7]
  viability, T/C: 9.71%
[8]
  viability, T/C: 12.3%
[27]
  viability, T/C: 13.5%
[28]
  viability, T/C: 11.3%
[9]
  viability, T/C: 10.8%
[10]
  viability, T/C: 11.1%
[11]
  viability, T/C: 11.7%
[12]
  viability, T/C: 9.06%
[29]
  viability, T/C: 11.2%
[30]
  viability, T/C: 10.3%
[13]
  viability, T/C: 10.3%
[14]
  viability, T/C: 10%
[15]
  viability, T/C: 9.23%
[16]
  viability, T/C: 12%
[31]
  viability, T/C: 12.6%
[32]
  viability, T/C: 9.55%
[17]
  viability, T/C: 11.4%
[18]
  viability, T/C: 11.2%
[19]
  viability, T/C: 10%
[20]
  viability, T/C: 11.5%
[33]
  viability, T/C: 14.2%
[34]
  viability, T/C: 9.92%
[21]
  viability, T/C: 11.5%
[22]
  viability, T/C: 13.2%
[23]
  viability, T/C: 13.2%
[24]
  viability, T/C: 9.97%
[35]
  viability, T/C: 15.8%
[36]
  viability, T/C: 12.4%

## C=CC(=O)N1CCN(c2nc(=O)n(-c3c(C)ccnc3C(C)C)c3nc(-c4c(O)cccc4F)c(F)cc23)C(C)C1 (stereo unspecified) + CN1CCN(c2cc(C(=O)Nc3cc4cc(-c5cnn(C)c5)ccc4cn3)ccn2)CC1
Second compound 0.0316 µM
  IC50: > 10 µM
Second compound 0.1 µM
  IC50: > 10 µM
Second compound 0.316 µM
  IC50: < 0.0316 µM
Second compound 1 µM
  IC50: < 0.0316 µM
Second compound 3.16 µM
  IC50: < 0.0316 µM
Second compound 10 µM
  IC50: < 0.0316 µM
[1]
  viability, T/C: 93.6%
[2]
  viability, T/C: 90.1%
[3]
  viability, T/C: 99.3%
[4]
  viability, T/C: 99%
[25]
  viability, T/C: 94%
[26]
  viability, T/C: 77.7%
[5]
  viability, T/C: 80%
[6]
  viability, T/C: 82.7%
[7]
  viability, T/C: 89.3%
[8]
  viability, T/C: 86.6%
[27]
  viability, T/C: 83.5%
[28]
  viability, T/C: 62.9%
[9]
  viability, T/C: 37.6%
[10]
  viability, T/C: 37.7%
[11]
  viability, T/C: 41.1%
[12]
  viability, T/C: 43.2%
[29]
  viability, T/C: 36.2%
[30]
  viability, T/C: 16.5%
[13]
  viability, T/C: 0.2%
[14]
  viability, T/C: 2.35%
[15]
  viability, T/C: 0.89%
[16]
  viability, T/C: 0.26%
[31]
  viability, T/C: 1.99%
[32]
  viability, T/C: 1.88%
[17]
  viability, T/C: 1.99%
[18]
  viability, T/C: 4.29%
[19]
  viability, T/C: 3.33%
[20]
  viability, T/C: 0.14%
[33]
  viability, T/C: 1.88%
[34]
  viability, T/C: 0.7%
[21]
  viability, T/C: 1.21%
[22]
  viability, T/C: 1.7%
[23]
  viability, T/C: 1.33%
[24]
  viability, T/C: 0.55%
[35]
  viability, T/C: 3.67%
[36]
  viability, T/C: 1%
